Measured values as given in patent US20230014907A1, “INHIBITORS OF APOL1 AND METHODS OF USING SAME” (Vertex Pharmaceuticals Incorporated, priority 2020, published 2023).

Molecular target: T1, G1 APOL1 (Homo sapiens, UniProt O14791, I384M/S342G)
T1 construct: expressed in transfected cells
T1 sequence (O14791 28-398 S342G/I384M): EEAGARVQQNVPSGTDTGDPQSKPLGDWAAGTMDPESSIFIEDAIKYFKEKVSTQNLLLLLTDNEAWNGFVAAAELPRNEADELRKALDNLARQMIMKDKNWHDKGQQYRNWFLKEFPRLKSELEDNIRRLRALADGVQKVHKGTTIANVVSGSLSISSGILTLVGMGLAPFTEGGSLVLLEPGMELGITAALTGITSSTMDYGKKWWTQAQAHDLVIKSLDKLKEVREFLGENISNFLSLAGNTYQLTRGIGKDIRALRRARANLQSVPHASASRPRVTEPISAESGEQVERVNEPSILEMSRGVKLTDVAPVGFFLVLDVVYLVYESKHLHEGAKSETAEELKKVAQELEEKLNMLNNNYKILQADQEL
Assay: Acute APOL1 Thallium Assay with Inducible Stable Clones of HEK 293 Cells
Type: cell-based
Settings: HEK 293 inducible stable clones, G1 APOL1; read-out: Thallium Assay (IC50)
How it was run: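 Pore activity was read as the fluorescence increase from Tl+ entering cells loaded with an AM-ester thallium indicator dye. The cells were tetracycline-inducible HEK293 T-Rex expressing G1 APOL1 (clone DC3.25), induced when plated at 26000 per well and incubated at 37° C.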

SMILES	IC50
C=CC(=O)NCCc1c(-c2ccc(F)cc2)[nH]c2c(F)cc(F)cc12 [Compound 417]	> 1 µM
CC(=O)NCCc1c(-c2ccc(F)cc2)[nH]c2c(F)cc(F)cc12 [Compound 418, N-[2-[5,7-difluoro-2-(4-fluorophenyl)-1H-indol-3-yl]ethyl]acetamide]	> 1 µM
O=CNCCc1c(-c2ccc(F)cc2)[nH]c2c(F)cc(F)cc12 [Compound 419, N-[2-[5,7-difluoro-2-(4-fluorophenyl)-1H-indol-3-yl]ethyl]formamide]	> 1 µM
O=C1NC(=O)C(CCS(=O)(=O)NCCc2c(-c3ccc(F)cc3)[nH]c3c(F)cc(F)cc23)N1 (stereo not drawn) [Compound 420, N-(2-(5,7-difluoro-2-(4-fluorophenyl)-1H-indol-3-yl)ethyl)-2-(2,5-dioxoimidazolidin-4-yl)ethane-1-sulfonamide]	> 1 µM
CC(O)CS(=O)(=O)NCCc1c(-c2ccc(F)cc2)[nH]c2c(F)cc(F)cc12 (stereo not drawn) [Compound 421]	> 1 µM
O=S(=O)(CCO)NCCc1c(-c2ccc(F)cc2)[nH]c2c(F)cc(F)cc12 [Compound 422]	> 1 µM
O=S(=O)(NCCc1c(-c2ccc(F)cc2)[nH]c2c(F)cc(F)cc12)C1CCOCC1 [Compound 423]	> 1 µM
Cn1ccnc1S(=O)(=O)NCCc1c(-c2ccc(F)cc2)[nH]c2c(F)cc(F)cc12 [Compound 424]	> 1 µM
CN(C)S(=O)(=O)NCCc1c(-c2ccc(F)cc2)[nH]c2c(F)cc(F)cc12 [Compound 425]	> 1 µM
O=C(NCCc1c(-c2ccc(F)cc2)[nH]c2c(F)cc(F)cc12)OCC1(C(=O)O)CC1 [Compound 426, 1-[2-[5,7-difluoro-2-(4-fluorophenyl)-1H-indol-3-yl]ethylcarbamoyloxymethyl]cyclopropanecarboxylic acid]	> 1 µM
O=C1NC[C@@H](O)[C@@H]1NCCc1c(-c2ccc(F)cc2)[nH]c2c(F)cc(F)cc12 [Compound 427, (3S,4R)-3-((2-(5,7-difluoro-2-(4-fluorophenyl)-1H-indol-3-yl)ethyl)amino)-4-hydroxypyrrolidin-2-one]	> 1 µM

Continued, values first:

IC50	SMILES
> 1 µM	O=C(NCCc1c(-c2ccc(F)cc2)[nH]c2c(F)cc(F)cc12)c1cncnc1 [Compound 400]
> 1 µM	O=C(NCCc1c(-c2ccc(F)cc2)[nH]c2c(F)cc(F)cc12)c1cccnc1 [Compound 401]
> 1 µM	O=C(NCCc1c(-c2ccc(F)cc2)[nH]c2c(F)cc(F)cc12)c1ccncc1 [Compound 402]
> 1 µM	O=C(NCCc1c(-c2ccc(F)cc2)[nH]c2c(F)cc(F)cc12)c1ccccn1 [Compound 403]
0.25 to 1 µM	O=C(NCCc1c(-c2ccc(F)cc2)[nH]c2c(F)cc(F)cc12)C1CC1(F)F (stereo not drawn) [Compound 404]
0.25 to 1 µM	CC(C)(CF)C(=O)NCCc1c(-c2ccc(F)cc2)[nH]c2c(F)cc(F)cc12 [Compound 405]
0.25 to 1 µM	O=C(NCCc1c(-c2ccc(F)cc2)[nH]c2c(F)cc(F)cc12)C1(F)CCC1 [Compound 406]
> 1 µM	O=C(NCCc1c(-c2ccc(F)cc2)[nH]c2c(F)cc(F)cc12)[C@H]1CCOC1 [Compound 407]
> 1 µM	O=C(NCCc1c(-c2ccc(F)cc2)[nH]c2c(F)cc(F)cc12)[C@@H]1CCOC1 [Compound 409]
0.25 to 1 µM	CC1(C(=O)NCCc2c(-c3ccc(F)cc3)[nH]c3c(F)cc(F)cc23)COC1 [Compound 410]
0.25 to 1 µM	CC(C)(C#N)C(=O)NCCc1c(-c2ccc(F)cc2)[nH]c2c(F)cc(F)cc12 [Compound 411]
0.25 to 1 µM	COCCC(=O)NCCc1c(-c2ccc(F)cc2)[nH]c2c(F)cc(F)cc12 [Compound 412]
> 1 µM	O=C(NCCc1c(-c2ccc(F)cc2)[nH]c2c(F)cc(F)cc12)C1COC1 [Compound 413]
> 1 µM	O=C(NCCc1c(-c2ccc(F)cc2)[nH]c2c(F)cc(F)cc12)C(F)F [Compound 414]
0.25 to 1 µM	O=C(NCCc1c(-c2ccc(F)cc2)[nH]c2c(F)cc(F)cc12)C1CC1 [Compound 415]
> 1 µM	N#CCC(=O)NCCc1c(-c2ccc(F)cc2)[nH]c2c(F)cc(F)cc12 [Compound 416]
